Laboratory results: US10046050B2, “Targeting immunotherapy for amyloidosis” (UNIVERSITY OF TENNESSEE RESEARCH FOUNDATION, priority 2014, dated 2018)

Key:
[1] = test system: mAb 7D8; assay: ELISA binding of 7D8 to peptopes dried on microplates; details: both assays
Procedure: Peptides (p75-78 and control reagents; peptide 39 [CGGHEDT] (SEQ ID NO: 54), peptide 41 [CGGHEDTMADQE] (SEQ ID NO: 55) and peptide p5 (SEQ ID NO: 1), were prepared at 1 μg/ml in PBS and 50 μl was added to each well of 1 96-well microplate (Costar EIA/RIA high binding). The peptides were dried onto the well at 37° C. overnight. Sample wells were blocked for 1 h by addition of 200 μL of 1% BSA in PBS. Primary antibodies (7D8 or biotinylated 7D8) and secondary antibodies (biotinylated goat anti mouse) were added in 100 μL of a diluent of 1% BSA and 0.05% tween 20 in PBS. The 7D8 primary antibody was tested with a 1:2 dilution series beginning at 50 nM. A 1/3000 dilution of the secondary biotinylated goat anti-mouse IgG antibody (Sigma) was added for 1 h and the microplate washed. When the biotinylated 7D8 mAb was used the secondary antibody step was omitted. Binding was visualized by addition of a 1/1000 dilution of europium/streptavidin (Perkin Elmer) for 1 h and developed with enhancement solution (Perkin Elmer) before quantifying the signal using a time-resolved fluorescence plate reader (Wallac).

[2] = test system: human Tal ALκ amyloid; assay: Immunohistochemistry of biotinyl-7D8 on formalin-fixed tissue sections; assay type: binding; details: kidney, label = pre-treatment peptide, or 7D8 alone
Procedure: (§1) The binding of biotinylated 7D8 mAb with autopsy-derived, formalin-fixed, paraffin-embedded tissue sections containing, ATTR, ALκ or ALλ was assessed immunohistochemically. Consecutive tissue sections were stained with: Congo red; biotinylated 7D8 alone; 7D8 with the control peptide p5; or, 7D8 mAb with peptope p75 pretreatment. Briefly, six μm-thick tissue sections were subjected to antigen retrieval by incubation in CitraPlus solution (BioGenex, San Ramon, Calif.) for 30 min at 90° C. Unlabeled peptope p75 was added to the tissue at ˜3 μg/mL and incubated overnight at 4° C. Unbound reagent was removed by washing in PBST for 30 min. Tissues sections (with or without peptope pretreatment) were immunostained by addition of 3 μg/mL biotinylated 7D8 mAb. Slides were developed by addition of streptavidin-HRP (Vectastain Elite ABC kit, Vector Labs) followed by 3,3′-diaminobezidene (Vector Labs) and examined using a Leica DM500 microscope.

[3] = test system: human ATTR amyloid; assay: as above; assay type: binding; details: label = pre-treatment peptide, or 7D8 alone
Procedure: as §1

[4] = test system: human Den ALλ amyloid; assay: as above; assay type: binding; details: thyroid, label = pre-treatment peptide, or 7D8 alone
Procedure: as §1

binding of 7D8 and biotinyl-7D8 [1]: no binding
Substance: KAQKAQAKQAKQAQKAQKAQAKQAKQ (KAQKAQAKQAKQAQKAQKAQAKQAKQ; Peptide p5)
immunohistochemical staining with biotinyl-7D8 [2]: inhibited this effect | immunohistochemical staining with biotinyl-7D8 ([3]; Gre ATTR, esophagus): decreased | immunohistochemical staining with biotinyl-7D8 ([3]; Gre ATTR, heart): partially inhibited | immunohistochemical staining with biotinyl-7D8 ([3]; Ken ATTR, heart): background 7D8 staining was diminished | immunohistochemical staining with biotinyl-7D8 ([3]; Sno ATTR, heart): background 7D8 staining was diminished | immunohistochemical staining with biotinyl-7D8 [4]: inhibited this effect
